From PMC12693026, “Green Contributions to the Chemistry of Perezone and Oxidation of the Double Bond of the Side Chain: A Theoretical Study and Cytotoxic Evaluation in MDA-MB231 Cells” (Molecules, 2025)
Read-outs that look alike come from different tables or passages of the source.

Columns and labels:
[1] = test system: MDA-MB-231 breast cancer cells; assay: MTT cytotoxicity assay on MDA-MB-231 breast cancer cells; format: cell-based; settings: mean ± S.D. of three values
Description: (§1) This test was performed using the MDA-MB231 breast cancer cell line (ATCC® CRM-HBT-26), as described by Mosmann. The cells were incubated at different concentrations of the compounds of interest. To generate the cell viability curves of all synthesized compounds, cells were seeded in 96-well culture plates at a density of 5000 cells/well and cultured in DMEM supplemented with 10% FBS. Cell viability was measured using MTT reagent dissolved in PBS (0.5 mg/mL). On the day of measurement, the medium was carefully replaced with fresh DMEM and 10% SFB containing diluted MTT (1:10, 10% MTT), and the sample was incubated for 1 h at 37 °C in a CO2 incubator to allow for the transformation of MTT dye into Formazan salt. After removing the incubation medium, the Formazan crystals were dissolved in 100 µL of DMSO solution. It is also important to note that the reduction in MTT was quantified by measuring absorbance at 570 nm using the Benchmark Plus absorbance microplate reader (Bio-Rad). The MTT test was repeated nine times. The proliferation percentage (% viability) was calculated according to the following:% Viability = (B/A) × 100 where A is the absorbance value of the control group and B is the absorbance value of the cells treated with the compounds of interest.
IC50 was extrapolated from the dose–response plot, obtained by plotting viability versus concentration. The concentration of the drug that reduced the viability of the cells by 50% (IC50) was determined by plotting the data points in triplicate over a concentration range and calculating the values using regression analysis.

[2] = MTT mortality on normal fibroblasts (control); format: cell-based; settings: human, primary dermal fibroblast normal cells, data from IC50 (µM)
Description: [The source words this procedure for another cell line and says it was used here with some conditions changed.] as §1

[3] = Solubility observed in the cytotoxic testing; format: physicochemical; settings: observation during MTT testing
[4] = test system: caspase-3; settings: cited from earlier work
[5] = Homo sapiens, MDA-MB-231, MDA-MB-231, MTT assay, read-out: IC50
[6] = Homo sapiens, MDA-MB-231, MDA-MB-231, MTT assay, read-out: IC50 (μg/mL)

SMILES	IC50 [1, 5]	IC50 [1, 6]	mortality at 24 h [2]	solubility in the cytotoxic/IC50 testing (in words) [3]	binding energy with caspase-3 ([4]; assessed for diabetes mellitus)	binding energy of complex with caspase-3 [4]	IC50 ([1]; MDA-MB-231, MTT assay)
CC1=CC(=O)C(C(C)CCC(O)C(C)(C)O)=C(O)C1=O (centres unmarked) [Compound 9]	101 ± 19.2 µM	28.4 ± 5.4 µg/mL	46.4 ± 1.08%				
CC(=O)OC(C)(C)C(O)CCC(C)C1=CC(=O)C(C)=C(O)C1=O (centres unmarked) [Compound 8]		33 µg/mL		poor solubility			
O=C[C@H](O)[C@@H](O)[C@@H](O)[C@H](O)C(=O)O [D-galacturonic acid]					-16.9 kJ/mol		
CC1=CC(=O)C(C(C)CCC2OC2(C)C)=C(O)C1=O (centres unmarked) [Compound 3]	9.62 ± 0.76 µM	2.54 ± 0.2 µg/mL	19.5 ± 3.27%				
CC1=CC(=O)C(C(C)CCC2OC(C)(C)OC2(C)C)=C(O)C1=O (centres unmarked) [Compound 5]	74.9 ± 14.8 µM	24.1 ± 4.75 µg/mL	90.7 ± 0.58%				
CC1=C(O)C(=O)C(C(C)CCC(O)C(C)(C)O)=CC1=O (centres unmarked) [Compound 10]	140 ± 6.13 µM	39.4 ± 1.73 µg/mL	68.7 ± 1.08%				
CC1=CC(=O)c2c(O)cccc2C1=O [plumbagin]						-42.38 kJ/mol	
CC1=C(O)C(=O)C(C(C)CCC2OC(C)(C)OC2(C)C)=CC1=O (centres unmarked) [Compound 6]	8.44 ± 1.46 µM	2.72 ± 0.47 µg/mL	18.4 ± 1.54%				
CC1=C(O)C(=O)C(C(C)CCC2OC2(C)C)=CC1=O (centres unmarked) [Compound 4]	114 ± 31.8 µM	30 µg/mL	42.38 ± 0.19%				30.2 ± 8.4 µg/mL
CC(C)=CCC[C@@H](C)C1=CC(=O)C(C)=C(O)C1=O [Compound 2, isoperezone, reference compound]	19.31 ± 0.05 µM	4.79 ± 0.01 µg/mL					
CC(=O)OC(C)(C)C(O)CCC(C)C1=C(O)C(=O)C(C)=CC1=O (centres unmarked) [Compound 7]	103 ± 5.96 µM	33.2 ± 1.93 µg/mL	96.8 ± 2.76%	did not show great solubility			
